In patent US20190291112A1, “DROPLET MICROFLUIDICS FOR DRUG SCREENING” (University of Macau, priority 2018, published 2019):
Read-outs that look alike come from different tables or passages of the source.

Columns and labels:
[1] = system: NAS1608 human primary nasopharyngeal tumor sample; assay: cells; type: cell-based; settings: for viability at 1 µM / viability at 10 µM / cytotoxicity at 10 µM: Homo sapiens; for viability at 1 µM / viability at 10 µM: read-out: mean cell viability; for droplet cell viability range: 17 h post-treatment; for range of droplet cell viability: before treatment (0 h); for mean cell death: normalized to DMSO control, calibrated by 0 h data
[2] = system: NAS1607 primary nasopharyngeal tumor sample; assay: On chip drug screening of primary tumor dissociated cells; type: cell-based, human
Description: (§1) All human studies were conducted with the approval of the Panel on Research Ethics of University of Macau and the Research Ethics Committee of Kiang Wu Hospital, according to the Materials Transfer Agreement between University of Macau and Kiang Wu Hospital. Informed consent for sampling and publication without identifiable information was obtained from all participating patients. All patient sample names were double encoded by the university and the hospital, respectively, to remove any trace of patient identity during sample collection, transfer, processing and analysis. Primary tumors were obtained from surgery conducted at Kiang Wu Hospital immediately after tumor resection. Tumor tissue was dissociated as previously described. Briefly, tumor tissue was first cut into small pieces by a scalpel, then transferred to a 50 mL conical tube containing 5 mL Digestion Buffer I (DMEM/F12 medium containing 5% FBS, 5 μg/mL insulin, 500 ng/mL hydrocortisone, 10 ng/mL epidermal growth factor (EGF), 20 ng/mL cholera toxin, 300 U/mL collagenase III and 100 U/mL hyaluronidase), and digested for no more than 12 h with shaking at 100 rpm in humidified incubator at 37° C. supplemented with 5% CO2. After spinning down at 400 g at ambient temperature for 2 min, the cells were resuspended with 2 mL Digestion Buffer II (DMEM/F12 medium containing 5 mg/mL dispase II and 0.1 mg/mL deoxyribonuclease I), followed by digestion at ambient temperature for 5 min. The cells were then washed with 10 mL HBSS (Life Technologies, USA). […]
(§2) Briefly, cells at final concentrations of 1-2×10^6 cells per mL were aliquoted in 0.2 mL PCR tubes, then mixed with corresponding drugs and 2 μM ethidium homodimer 1 (Life Technologies, USA) by manual pipetting. […] Brightfield and red fluorescence images (Ex. 531/40 nm, Em. 593/40 nm) were taken under 10× magnification (Life Technologies EVOS FL Imaging System, USA).
(§3) For on chip assays, the number of cells was counted in brightfield and red fluorescence images from each well respectively. Cell viability was calculated as follows: […]

[3] = system: NAS1605 primary nasopharyngeal tumor sample; assay: as above; type: cell-based, human; settings: NAS1605, 16-24 h, normalized to mock treatment
Description: as §1, §2, §3

[4] = system: primary tumor cell NAS1604 (nasopharyngeal tumor); assay: as above; type: cell-based, human
[5] = system: derived cell line NAS1604C; assay: On chip drug screening of derived cell line; type: cell-based, human
Description: On chip drug screening was performed using the PDMS-based microfluidic chip as described above. A 500 μL glass syringe (Hamilton, USA) and polytetrafluoroethylene (PTFE) tubings with appropriate bore (Cole Parmer, USA) was used to connect between the syringe pump (Harvard Apparatus PHD Ultra Syringe Pump, USA) and the microfluidic chip. Fluorinert® FC-40 (Sigma-Aldrich, USA) supplemented with 2% 008-Fluorosurfactant (Ran Biotechnologies, USA) was used as oil phase; relevant cell culture medium, supplemented with 1% (w/v) methyl cellulose (Sigma-Aldrich, USA) was used as aqueous phase. Cells treated with 0.1% dimethyl sulfoxide (DMSO) were used as negative control.
Briefly, cells at final concentrations of 1-2×10^6 cells per mL were aliquoted in 0.2 mL PCR tubes, then mixed with corresponding drugs and 2 μM ethidium homodimer 1 (Life Technologies, USA) by manual pipetting. Next, […], cell-drug mixtures were loaded into the tubing, consecutively segregated by oil phase at withdrawal rate of 200 μL/h by syringe pump. After loading all mixtures, the tubing was inserted into the microfluidic chip, which was back-flushed with oil phase at 500 μL/h by syringe pump. After that, the mixtures were infused at 25 μL/h by syringe pump. Finally, the inlet and outlet tubings were cut and sealed with Vaseline (Vaseline, USA). The chips were placed in 150 mm cell culture dish (Coming, USA) containing wet paper towels, and transferred to humidified incubator at 37° C. supplemented with 5% CO2 for 16-24 h incubation. Brightfield and red fluorescence images (Ex. 531/40 nm, Em. 593/40 nm) were taken under 10× magnification (Life Technologies EVOS FL Imaging System, USA).
as §3
where Total cells and Dead cells referred to the total number of cells counted from brightfield and red fluorescence images, respectively.
Drug susceptibility between the primary tumor cell NAS1604 and its derived cell line NAS1604C was compared (FIG. 9). […] Here, the concept of droplet cell viability was introduced to indicate the total number of live cells among all cells in each individual droplet; in turn, the range of droplet cell viability referred to the range of cell viability of all droplets under specified treatment condition. […] On the other hand, mean cell viability of all treatment conditions were higher in the derived cell line NAS1604C than corresponding conditions in the primary tumor cell NAS1604, reminiscent of increased cell viability that was required for tumor amplification.

For CC(C)C[C@H](NC(=O)[C@H](Cc1ccccc1)NC(=O)c1cnccn1)B(O)O [bortezomib], the viability at 1 µM ([1]; 0 h) was 72.9%, the viability at 10 µM ([1]; 0 h) was 78.8% and the cytotoxicity at 10 µM ([1]; 17 h, read-out: droplet cell viability reduction in the majority of droplets) was 35 to 55%. For the same compound, the cytotoxicity at 10 µM ([1]; 17 h, read-out: maximum reduction of droplet cell viability) was 62.9%, the viability at 1 µM ([1]; 17 h) was 42.5% and the viability at 10 µM ([1]; 17 h) was 34.6%. For the same compound, the cytotoxicity at 10 µM ([1]; 17 h, read-out: minimum reduction of droplet cell viability) was 29.3%, the “share of total sample cell population in droplets with viability reduction of over 30%” value ([1]; NAS1608, 10 μM bortezomib, 17 h) was 92.4% and the “droplet cell viability range” value ([1]; NAS1608, 10 μM bortezomib) was 49.7%. The “range of droplet cell viability” value ([1]; NAS1608, 10 μM bortezomib) was 29.0%, the mean cell death ([1]; NAS1608, 10 μM, 17 h) was 51.7% and the “dose dependence of normalized cell viability” value ([1]; NAS1608, 16-24 h, normalized to mock treatment) was “dose-dependent reduction of cell viability”. For the same compound, the “dose dependence of normalized cell viability” value ([2]; NAS1607, 16-24 h, normalized to mock treatment) was “inverse correlation”, the “dose dependence of normalized cell viability” value [3] was “dose-dependent reduction of cell viability” and the “range of droplet cell viability” value ([4]; NAS1604, 1 μM bortezomib) was 42.6%. For the same compound, the “mean cell viability compared with other treatments” value ([4]; NAS1604, 1 μM, versus DMSO and cisplatin) was “highest mean cell viability”, the “droplet cell viability range” value ([5]; 1 μM bortezomib) was 37.5% and the “droplet cell viability range after removal of one droplet outlier” value ([5]; 1 μM bortezomib) was 16.1%. The “cell viability compared with mock treatment” value ([5]; 1 μM, versus DMSO) was “highest cell viability”.

In the case of N.N.[Cl][Pt][Cl] [cisplatin], the “droplet cell viability range” value ([1]; NAS1608, 100 μM cisplatin) was 56.5%, the “range of droplet cell viability” value ([1]; NAS1608, 100 μM cisplatin) was 31.1% and the mean cell death ([1]; NAS1608, 100 μM, 17 h) was 21.0%. The susceptibility ([2]; NAS1607, 100 μM and 33 μM) was “leveled off”, the “mean cell viability compared with other treatments” value ([4]; NAS1604, 20 μM) was “lowest mean cell viability” and the “range of droplet cell viability” value ([4]; NAS1604, 20 μM cisplatin) was 64.0%. For the same compound, the “droplet cell viability range” value ([5]; 11 μM cisplatin) was 36.5%, the “droplet cell viability range” value ([5]; 33 μM cisplatin) was 71.6% and the “droplet cell viability range after removal of one droplet outlier” value ([5]; 33 μM cisplatin) was 40.8%. For the same compound, the “dose dependence of response” value ([5]; 11 and 33 μM) was “dose-dependent response”.
